Series [1] is described as follows: Differential thermal analysis (DTA) and thermogravimetry (TG) of crystals. It is filed as physicochemical. The procedure:
Differential Thermal Analysis (DTA) and Thermogravimetry (TG)
The thermal stability of crystals was compared by using apparatus for thermal analysis (SII: TG/DTA6200). […] With the new type crystals, the endothermic phenomenon due to transition was seen from 131.4° C. and the endothermic peak due to melting was shown at 132.0° C.

The nature of series [2]: Hygroscopicity of crystals. Type of series: physicochemical. Conditions: stated without described test.

Consider `CC[C@@H](Cc1ccc(OC)c(C(=O)NCc2ccc(Oc3ccc(F)cc3)cc2)c1)C(=O)O` [new type crystals, (S)-2-[[3-[N-[4-[(4-fluorophenoxy)phenyl]methyl]-carbamoyl]-4-methoxyphenyl]methyl]butanoic acid], for which the “weight change in thermogravimetry” value in series [1] (TG/DTA6200 thermal analysis, FIG. 3 and 4) was “no weight change”. Besides, in series [1] (conclusion from DTA/TG comparison of new and old type crystals), the “thermal stability of crystals” value was “thermally stable”. Also, in series [2], the hygroscopicity result was “no hygroscopicity”.

For the origin of these results see patent publication US20050228050A1, “Novel stable crystals of substituted phenylpropionic acid derivative and process for producing the same” (priority 2001, published 2005).
